We go through 36 molecules from ChEMBL document CHEMBL4483862, “Open-source discovery of chemical leads for next-generation chemoprotective antimalarials” (2018).

Molecules are shown by their SMILES.

The test system of this assay is Plasmodium berghei. Briefly: Luciferase/luciferin-expressing antifolate-resistant parasites were used to infect a culture of HepG2 cells that were pre-incubated with compounds. Infected hepatocytes emit light due to the luciferase reaction. Assay results are presented as the percent inhibition of light emission compared to control. […]. The class given is functional. The conditions noted are these: sporozoite; for IC90: read-out: LUCIFERASE INFECTION ASSAY - IC90.

Turning to `O=c1c2ccccc2sc2nc(C3CCCCC3)n(Cc3ccco3)c(=O)c12`, the IC90 (in general, the concentration needed for an effect of 90%) is over 8.41 µM. Besides, the IC50 (as a rule, the concentration that gives 50% inhibition) (PBLUC_HILL_SLOPE 3.17, PBLUC_R_SQUARED 0.712, read-out: LUCIFERASE INFECTION ASSAY - IC50) came to 4.57 µM.

Consider `CSc1nncn1-c1ccccc1`, for which the IC90 amounted to 15.4 µM. Where the note is “PBLUC_HILL_SLOPE 3.17, PBLUC_R_SQUARED 0.315, read-out: LUCIFERASE INFECTION ASSAY - IC50”, the IC50 came to 7.69 µM.

As for `NC1=C(c2ccccc2)C(=O)c2ccccc21`, the IC90 was over 14.9 µM. For the same molecule, the IC50 (PBLUC_HILL_SLOPE 3.17, PBLUC_R_SQUARED 0.165, read-out: LUCIFERASE INFECTION ASSAY - IC50) is over 14.9 µM.

For `Cc1nn(Cc2ccccc2Cl)c(Cl)c1C(=O)OC(C(=O)c1c[nH]c2ccccc12)c1ccccc1` (configuration not stated), the IC90 was over 10 µM. Where the note is “PBLUC_HILL_SLOPE 3.17, PBLUC_R_SQUARED 0.115, read-out: LUCIFERASE INFECTION ASSAY - IC50”, the IC50 amounted to 6.36 µM.

Regarding `COC(=O)C1=C(C)NC(C)=C(C(=O)OC)C1c1cc(NC(=O)c2cccc(OC(F)F)c2)ccc1OC(F)F`, the IC90 came to 8.9 µM. The IC50 (PBLUC_HILL_SLOPE 3.17, PBLUC_R_SQUARED 0.755, read-out: LUCIFERASE INFECTION ASSAY - IC50) is 4.45 µM.

Turning to `Cc1cc(C)n(-c2nc(-c3ccccc3)cc(N3CCCC3)n2)n1`, the IC90 was 8.47 µM. Besides, the IC50 (PBLUC_HILL_SLOPE 3.13, PBLUC_R_SQUARED 0.498, read-out: LUCIFERASE INFECTION ASSAY - IC50) turned out to be 4.2 µM.

In the case of `CCCn1c(-c2ccc(OC)cc2)nc2c(c(=O)c3ccccc3n2C)c1=O`, the IC90 was 7.12 µM. Moreover, where the note is “PBLUC_HILL_SLOPE 3.15, PBLUC_R_SQUARED 0.522, read-out: LUCIFERASE INFECTION ASSAY - IC50”, the IC50 came out at 3.55 µM.

Turning to `COCCCN1C(=O)N(Cc2ccc3ccccc3c2)C(=O)C12CCN(Cc1ccc(C)cc1)CC2`, the IC90 was over 6.8 µM. For the same molecule, where the note is “PBLUC_HILL_SLOPE 3.14, PBLUC_R_SQUARED 0.039, read-out: LUCIFERASE INFECTION ASSAY - IC50”, the IC50 came to 4.02 µM.

As for `Cc1cc(C)n2nc(SCC(=O)c3c(-c4ccccc4)[nH]c4ccccc34)nc2n1`, the IC90 stood at 5.12 µM. For the same molecule, the IC50 (PBLUC_HILL_SLOPE 3.17, 7.12, PBLUC_R_SQUARED 0.979, 0.666, read-out: LUCIFERASE INFECTION ASSAY - IC50) was 4.67 µM.

For `C=CCNC(=O)C(C)Sc1nnc(-c2ccc(C)cc2)c(-c2ccc(C)cc2)n1` (configuration not stated), the IC90 is 2.06 µM. The IC50 (PBLUC_HILL_SLOPE 3.18, 2.13, PBLUC_R_SQUARED 0.929, 0.663, read-out: LUCIFERASE INFECTION ASSAY - IC50) was determined as 0.807 µM.

In the case of `CN(C)c1ccc(CNCC2(c3ccnc(-c4cccc(N(C)C)c4)c3)CC2)cc1`, the IC90 is over 10 µM. The IC50 (PBLUC_HILL_SLOPE 3.17, PBLUC_R_SQUARED 0.141, read-out: LUCIFERASE INFECTION ASSAY - IC50) is 9.64 µM.

On to `O=C(CN1CCN(c2cccc(Cl)c2)CC1)Nc1cc(C2CC2)nn1-c1ccccc1`, for which the IC90 is over 10 µM. Further, under “PBLUC_HILL_SLOPE 3.16, PBLUC_R_SQUARED 0.0582, read-out: LUCIFERASE INFECTION ASSAY - IC50”, the IC50 amounted to 6.87 µM.

Consider `O=C(Nc1ccc(Oc2ccnc3cc(Cl)ccc23)cc1)c1ccco1`, for which the IC90 was 2.99 µM. Under “PBLUC_HILL_SLOPE 3.16, PBLUC_R_SQUARED 0.555, read-out: LUCIFERASE INFECTION ASSAY - IC50”, the IC50 was found to be 1.49 µM.

`c1ccc(CCNCc2cn(-c3ccccc3)nc2-c2cccs2)cc1`: the IC90 is over 10 µM. For the same molecule, the IC50 (PBLUC_HILL_SLOPE 3.19, PBLUC_R_SQUARED 0.352, read-out: LUCIFERASE INFECTION ASSAY - IC50) is 9.18 µM.

On to `C=c1onc(-c2c(F)cccc2Cl)c1=C1NC(c2ccccn2)=NO1`, for which the IC90 is over 9.25 µM. Besides, the IC50 (PBLUC_HILL_SLOPE 3.2, PBLUC_R_SQUARED 0.36, read-out: LUCIFERASE INFECTION ASSAY - IC50) came out at 6.04 µM.

On to `N#Cc1ccc(C(=O)Nc2cccc(Oc3ccccc3)c2)cc1`, for which the IC90 is over 10 µM. Further, for the setting “PBLUC_HILL_SLOPE 3.19, PBLUC_R_SQUARED 0.12, read-out: LUCIFERASE INFECTION ASSAY - IC50”, the IC50 came out at 6.33 µM.

On to `CC(=O)Nc1cccc(-c2cn3c(-c4ccc(Cl)cc4)cnc3cn2)c1`, for which the IC90 is 3.69 µM. Also, the IC50 (PBLUC_HILL_SLOPE 3.14, PBLUC_R_SQUARED 0.81, read-out: LUCIFERASE INFECTION ASSAY - IC50) came out at 1.83 µM.

Consider `FC(F)(F)c1cccc(-c2noc(CCc3nc4ccccc4[nH]3)n2)c1`, for which the IC90 stood at 7.22 µM. Besides, where the note is “PBLUC_HILL_SLOPE 3.19, PBLUC_R_SQUARED 0.657, read-out: LUCIFERASE INFECTION ASSAY - IC50”, the IC50 is 3.63 µM.

As to `C=CCc1c(C)[nH]c2c(-c3ccccc3)cnn2c1=O`, the IC90 turned out to be 12.1 µM. Moreover, the IC50 (PBLUC_HILL_SLOPE 3.12, PBLUC_R_SQUARED 0.621, read-out: LUCIFERASE INFECTION ASSAY - IC50) was determined as 6 µM.

Consider `Cc1c(Sc2ccc(Cl)cc2)c2ccccn2c1C(=O)c1cccs1`, for which the 90% effect concentration (IC90) was over 10 µM. The IC50 (PBLUC_HILL_SLOPE 3.16, PBLUC_R_SQUARED 0.487, read-out: LUCIFERASE INFECTION ASSAY - IC50) came to 6.35 µM.

In the case of `OCCN1N=C2c3cc(Cl)ccc3SCC2C1c1ccc(Cl)cc1` (configuration not stated), the IC90 was over 8.7 µM. Besides, the IC50 (PBLUC_HILL_SLOPE 3.12, PBLUC_R_SQUARED 0.594, read-out: LUCIFERASE INFECTION ASSAY - IC50) worked out at 7.08 µM.

For `Cn1cc(-c2cnc3cnc(-c4ccc5c(c4)OCO5)cn23)cn1`, the IC90 is over 10.3 µM. Also, the IC50 (PBLUC_HILL_SLOPE 3.19, PBLUC_R_SQUARED 0.356, read-out: LUCIFERASE INFECTION ASSAY - IC50) came out at 9.57 µM.

Take `Cc1ccc(-n2nnnc2COc2cc(C)ccc2C(C)C)c(C)c1`: the IC90 is over 9.81 µM. Also, where the note is “PBLUC_HILL_SLOPE 3.14, PBLUC_R_SQUARED 0.65, read-out: LUCIFERASE INFECTION ASSAY - IC50”, the IC50 was found to be 6.61 µM.

`N#C/C(=C\c1cc(Cl)cc(Cl)c1O)c1ccc([N+](=O)[O-])cc1`: the IC90 was 6.14 µM. Besides, under “PBLUC_HILL_SLOPE 3.19, PBLUC_R_SQUARED 0.599, read-out: LUCIFERASE INFECTION ASSAY - IC50”, the IC50 was 3.08 µM.

As to `O=C(NCCO)c1cccc(-c2ccc3ncc(-c4cccc(OC(F)(F)F)c4)n3n2)c1`, the IC90 came out at 9.96 µM. The IC50 (PBLUC_HILL_SLOPE 3.2, PBLUC_R_SQUARED 0.416, read-out: LUCIFERASE INFECTION ASSAY - IC50) was 5.01 µM.

Turning to `CC/C=C1/CC(=O)N(c2ccccc2)C1=O`, the IC90 amounted to 14.2 µM. Under “PBLUC_HILL_SLOPE 3.2, PBLUC_R_SQUARED 0.213, read-out: LUCIFERASE INFECTION ASSAY - IC50”, the IC50 is 7.15 µM.

Regarding `FC(F)(F)c1cc(NCc2ccccc2C(F)(F)F)nc(-c2ccccn2)n1`, the IC90 was 7.12 µM. Besides, the IC50 (PBLUC_HILL_SLOPE 3.13, PBLUC_R_SQUARED 0.711, read-out: LUCIFERASE INFECTION ASSAY - IC50) stood at 3.52 µM.

Turning to `O=C1Nc2ccc(Cl)cc2/C1=C/c1cn(Cc2ccccc2)nc1-c1cccnc1`, the IC90 was over 10 µM. Besides, for the setting “PBLUC_HILL_SLOPE 3.18, PBLUC_R_SQUARED 0.696, read-out: LUCIFERASE INFECTION ASSAY - IC50”, the IC50 turned out to be 5.57 µM.

On to `Cc1ccc(CC(=O)NCc2ccc(C#N)cc2)cc1`, for which the IC90 stood at 8.45 µM. The IC50 (PBLUC_HILL_SLOPE 3.17, PBLUC_R_SQUARED 0.517, read-out: LUCIFERASE INFECTION ASSAY - IC50) worked out at 4.23 µM.

With `CC(C)(C)c1ccc(-n2c(SCc3ccc(Cl)cc3)nnc2-c2ccccc2Cl)cc1`, the IC90 was over 7.04 µM. In addition, the IC50 (PBLUC_HILL_SLOPE 3.18, PBLUC_R_SQUARED 0.744, read-out: LUCIFERASE INFECTION ASSAY - IC50) is over 7.04 µM.

On to `CC(C)Oc1ccc(Nc2cc3c(cn2)nc(NCc2ccccc2)n3C)cc1`, for which the IC90 is over 10 µM. Also, for the setting “PBLUC_HILL_SLOPE 3.16, PBLUC_R_SQUARED 0.219, read-out: LUCIFERASE INFECTION ASSAY - IC50”, the concentration for half-maximal inhibition (IC50) is 5.76 µM.

As for `CC(=O)NCCCc1ccc(C(=O)COC(=O)c2ccccc2-n2cnnn2)cc1`, the IC90 is 2.51 µM. Also, under “PBLUC_HILL_SLOPE 3.15, PBLUC_R_SQUARED 0.801, read-out: LUCIFERASE INFECTION ASSAY - IC50”, the IC50 worked out at 1.25 µM.

On to `FC(F)(F)c1cc(N/N=C2/CCSc3sccc32)cc(C(F)(F)F)c1`, for which the IC90 is over 8.33 µM. In addition, where the note is “PBLUC_HILL_SLOPE 3.14, PBLUC_R_SQUARED 0.463, read-out: LUCIFERASE INFECTION ASSAY - IC50”, the IC50 turned out to be 4.15 µM.

As for `O=C(Nc1nc2ccccc2[nH]1)c1cn(Cc2ccccc2)nc1-c1cccnc1`, the IC90 is over 10 µM. Moreover, where the note is “PBLUC_HILL_SLOPE 3.18, PBLUC_R_SQUARED 0.533, read-out: LUCIFERASE INFECTION ASSAY - IC50”, the IC50 turned out to be 7.1 µM.

For the molecule `Cc1nn(C(=O)c2c(Cl)cccc2Cl)c(C)c1Cc1c(Cl)cccc1Cl`, the IC90 is over 7.71 µM. For the same molecule, for the setting “PBLUC_HILL_SLOPE 3.14, PBLUC_R_SQUARED 0.492, read-out: LUCIFERASE INFECTION ASSAY - IC50”, the IC50 came to 5.28 µM.

Consider `CC(=O)Nc1ccc(Nc2cc3[nH]c(-c4cccc(F)c4)cc3cn2)cc1`, for which the IC90 was determined as 9.16 µM. Also, under “PBLUC_HILL_SLOPE 3.2, PBLUC_R_SQUARED 0.299, read-out: LUCIFERASE INFECTION ASSAY - IC50”, the IC50 was found to be 4.6 µM.
